# Data: US10041937B2, “Macrophage identification agent, and identification method, sorting method, evaluation method, screening method and kit using the macrophage identifier agent” (CANON KABUSHIKI KAISHA, priority 2013, dated 2018)
# Tested on: M1 macrophages and M2 macrophages differentiated from RAW264.7 cells
# Test: Identification of macrophage subtypes differentiated from mouse cell line RAW264.7
# Format: cell-based
# Settings: RAW264.7 derived M1 and M2
# Protocol: The subtypes were identified by using the compound (1) in the same manner as in Example 1 except that the macrophage subtypes differentiated from the mouse bone marrow cells were changed to macrophage subtypes differentiated from a cell line established from mouse monocytic leukemia.
# The culture of subtypes was performed with reference to NPL 9. Specifically, RAW264.7 cells purchased from American Type Culture Collection, that is, a cell line established from mouse monocytic leukemia, were subcultured several times, and the resultant cells were dispersed to a concentration of 3.3×10^4/mL in a D-MEM containing 10% FBS, 1% P/S and 1% MEM-NEAA, and 3.3×10^5 cells were seeded in a 100 mm dish. The cells were grown by incubation performed in the presence of 5% CO2 at 37° C. After 2 to 4 days, it was confirmed that an area of about to 70% of the bottom of the dish had been covered by the cells, the medium was then exchanged, and by adding 200 ng of interferon-γ and 1 μg of polyliposaccharide (both manufactured by Pepro Tech) to the medium, the cells were differentiated to the subtype M1. Besides, by adding 100 ng of IL-4, the cells were differentiated to the subtype M2. […]
# A histogram was prepared by plotting fluorescence intensity obtained in the FITC channel on the abscissa and plotting the number of cells at each fluorescence intensity on the ordinate, which is shown in FIG. 9.
smiles,measurement,value
CCOC(=O)CCN1C(=O)/C(=C\c2ccc3c(c2)C2CCCC2N3CC)SC1=S (stereo not shown) [compound (1)],subtype more strongly stained,the M1 macrophages were stained more strongly than the M2 macrophages
